{
  "source": "PubChem BioAssay (NCI)",
  "experiment_in_all_cases": "NCI tumour cell line growth inhibition, 48 h",
  "key": {"KM20L2 colon": {"tested_on": "KM20L2 colon"}, "MDA-MB-435": {"tested_on": "MDA-MB-435"}, "MDA-MB-231 breast": {"tested_on": "MDA-MB-231 breast"}, "DMS 273 small cell lung": {"tested_on": "DMS 273 small cell lung"}, "MCF7 breast": {"tested_on": "MCF7 breast"}, "DU-145 prostate": {"tested_on": "DU-145 prostate"}, "LXFL 529 NSCLC": {"tested_on": "LXFL 529 NSCLC"}, "SNB-78 CNS": {"tested_on": "SNB-78 CNS"}, "DMS 114 small cell lung": {"tested_on": "DMS 114 small cell lung"}, "PC-3 prostate": {"tested_on": "PC-3 prostate"}},
  "note": "Several values for one entry are separate records, joined by “and”; a condition that tells them apart may be missing. Equal values may be shown once.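 96-well plates; 48 h exposure; 5 concentrations. Endpoints by linear interpolation between flanking doses. Not reached: highest tested concentration assigned. GI50: concentration for 50% inhibition of growth. TGI denotes the concentration required for complete inhibition of growth.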",
  "data": [
    {"compound": "CNc1nc(N(C)C)nc(N(C)C)n1", "values": [
      {"measurement": "GI50", "setting": "KM20L2 colon", "result": "> 100 µM and 718 µM"},
      {"measurement": "TGI", "setting": "KM20L2 colon", "result": "> 100 µM and 3210 µM"},
      {"measurement": "TGI", "setting": "MDA-MB-435", "result": 4420, "unit": "µM"},
      {"measurement": "TGI", "setting": "MDA-MB-231 breast", "result": 2640, "unit": "µM"},
      {"measurement": "GI50", "setting": "DMS 273 small cell lung", "result": "> 100 µM and 1230 µM"},
      {"measurement": "TGI", "setting": "DMS 273 small cell lung", "result": "> 100 µM and 2740 µM"},
      {"measurement": "TGI", "setting": "MCF7 breast", "result": 1790, "unit": "µM"},
      {"measurement": "TGI", "setting": "DU-145 prostate", "result": 5040, "unit": "µM"},
      {"measurement": "TGI", "setting": "LXFL 529 NSCLC", "result": "> 100", "unit": "µM"},
      {"measurement": "GI50", "setting": "SNB-78 CNS", "result": "> 100 µM and 1780 µM"},
      {"measurement": "TGI", "setting": "SNB-78 CNS", "result": "> 100 µM and 5300 µM"},
      {"measurement": "GI50", "setting": "DMS 114 small cell lung", "result": "> 100 µM and 527 µM"},
      {"measurement": "TGI", "setting": "DMS 114 small cell lung", "result": "> 100 µM and 5500 µM"},
      {"measurement": "TGI", "setting": "PC-3 prostate", "result": 3960, "unit": "µM"}
    ]},
    {"compound": "C[CH2][Sn]([Cl])([Cl])[CH2]C", "values": [
      {"measurement": "GI50", "setting": "KM20L2 colon", "result": 71.4, "unit": "µM"},
      {"measurement": "TGI", "setting": "KM20L2 colon", "result": "> 100", "unit": "µM"},
      {"measurement": "GI50", "setting": "DMS 273 small cell lung", "result": "> 91.2", "unit": "µM"},
      {"measurement": "TGI", "setting": "DMS 273 small cell lung", "result": "> 100", "unit": "µM"},
      {"measurement": "GI50", "setting": "LXFL 529 NSCLC", "result": 12.5, "unit": "µM"},
      {"measurement": "TGI", "setting": "LXFL 529 NSCLC", "result": 25.2, "unit": "µM"},
      {"measurement": "GI50", "setting": "SNB-78 CNS", "result": 20.3, "unit": "µM"},
      {"measurement": "TGI", "setting": "SNB-78 CNS", "result": 46.4, "unit": "µM"},
      {"measurement": "GI50", "setting": "DMS 114 small cell lung", "result": 16.2, "unit": "µM"},
      {"measurement": "TGI", "setting": "DMS 114 small cell lung", "result": 31.4, "unit": "µM"}
    ]},
    {"compound": "N#CC(NNC(=O)c1ccccc1O)c1ccccc1", "note": "(centres undefined)", "values": [
      {"measurement": "TGI", "setting": "KM20L2 colon", "result": "> 100", "unit": "µM"},
      {"measurement": "TGI", "setting": "DMS 273 small cell lung", "result": "> 100", "unit": "µM"},
      {"measurement": "TGI", "setting": "LXFL 529 NSCLC", "result": "> 100", "unit": "µM"},
      {"measurement": "TGI", "setting": "SNB-78 CNS", "result": "> 100", "unit": "µM"},
      {"measurement": "TGI", "setting": "DMS 114 small cell lung", "result": 4.87, "unit": "µM"}
    ]},
    {"compound": "NC(CCSC(F)F)C(=O)O", "note": "(centres undefined)", "values": [
      {"measurement": "TGI", "setting": "KM20L2 colon", "result": "> 100", "unit": "µM"},
      {"measurement": "TGI", "setting": "DMS 273 small cell lung", "result": "> 100", "unit": "µM"},
      {"measurement": "TGI", "setting": "LXFL 529 NSCLC", "result": "> 100", "unit": "µM"},
      {"measurement": "TGI", "setting": "SNB-78 CNS", "result": "> 100", "unit": "µM"},
      {"measurement": "TGI", "setting": "DMS 114 small cell lung", "result": "> 100", "unit": "µM"}
    ]},
    {"compound": "COc1ccc2c(c1)CC1c3c(cc4c(c3-2)OCO4)CCN1C", "note": "(centres undefined)", "values": [
      {"measurement": "TGI", "setting": "KM20L2 colon", "result": "> 100", "unit": "µM"},
      {"measurement": "TGI", "setting": "DMS 273 small cell lung", "result": "> 100", "unit": "µM"},
      {"measurement": "TGI", "setting": "LXFL 529 NSCLC", "result": "> 100", "unit": "µM"},
      {"measurement": "TGI", "setting": "SNB-78 CNS", "result": "> 100", "unit": "µM"},
      {"measurement": "TGI", "setting": "DMS 114 small cell lung", "result": 68.8, "unit": "µM"}
    ]},
    {"compound": "O=P1(O)c2ccccc2Nc2cc(C(F)(F)F)ccc21", "values": [
      {"measurement": "TGI", "setting": "KM20L2 colon", "result": "> 100", "unit": "µM"},
      {"measurement": "TGI", "setting": "MDA-MB-435", "result": "> 100", "unit": "µM"},
      {"measurement": "TGI", "setting": "MDA-MB-231 breast", "result": "> 100", "unit": "µM"},
      {"measurement": "TGI", "setting": "DMS 273 small cell lung", "result": "> 100", "unit": "µM"},
      {"measurement": "TGI", "setting": "MCF7 breast", "result": "> 100", "unit": "µM"},
      {"measurement": "TGI", "setting": "DU-145 prostate", "result": "> 100", "unit": "µM"},
      {"measurement": "TGI", "setting": "LXFL 529 NSCLC", "result": "> 100", "unit": "µM"},
      {"measurement": "TGI", "setting": "SNB-78 CNS", "result": "> 100", "unit": "µM"},
      {"measurement": "TGI", "setting": "DMS 114 small cell lung", "result": "> 100", "unit": "µM"},
      {"measurement": "TGI", "setting": "PC-3 prostate", "result": "> 100", "unit": "µM"}
    ]},
    {"compound": "Cc1ccc(S(=O)(=O)c2c3[nH]c4ccccc4nc3n3c2nc2ccccc23)cc1", "values": [
      {"measurement": "TGI", "setting": "KM20L2 colon", "result": "> 100", "unit": "µM"},
      {"measurement": "TGI", "setting": "DMS 273 small cell lung", "result": "> 100", "unit": "µM"},
      {"measurement": "TGI", "setting": "LXFL 529 NSCLC", "result": "> 100", "unit": "µM"},
      {"measurement": "TGI", "setting": "SNB-78 CNS", "result": "> 100", "unit": "µM"},
      {"measurement": "TGI", "setting": "DMS 114 small cell lung", "result": "> 100", "unit": "µM"}
    ]}
  ]
}
